Km data for two compounds are collected here from PMC8777717, “Thiolation of Myco-Synthesized Fe3O4-NPs: A Novel Promising Tool for Penicillium expansium Laccase Immobilization to Decolorize Textile Dyes and as an Application for Anticancer Agent” (Journal of Fungi, 2022).

Structures are written as SMILES.

For test [1], the system named is T1, P. expansium laccase.
T1 construct: gene EC 1.10.3.2; native enzyme purified from culture filtrate (ABTS-supplemented medium; ammonium sulfate, DEAE-cellulose, Sephadex G-200); single SDS-PAGE band ~60 kDa; free (soluble) enzyme
Kind of test: spectrophotometric oxidation assay at […] nm, Lineweaver-Burk. The format is biochemical, Penicillium expansum. The settings on record: free enzyme; 0.2-0.8 mM substrate; 0.1 M sodium acetate pH 5.0, 40 °C.

The test system of test [2] is T1, P. expansium laccase. The test can be described thus: Lineweaver-Burk. Format: biochemical, Penicillium expansum. The conditions noted are these: free enzyme; 0.2-0.8 mM substrate; 0.1 M sodium acetate pH 5.0, 40 °C. The text has this:
Lineweaver-Burk on P. expansium laccase

The term Km denotes the concentration of substrate that gives half-maximal velocity. Regarding `CCn1c(=NN=c2sc3cc(S(=O)(=O)O)ccc3n2CC)sc2cc(S(=O)(=O)O)ccc21` [ABTS], in test [1], the Km was 4150 µM.

Consider `Oc1ccccc1O` [catechol], for which the Km in test [2] is 1310 µM.
